Results as given in US20230303494A1, “BENZYLAMINE DERIVATIVE, PREPARATION METHOD THEREFOR AND USE THEREOF” (ACADEMY OF MILITARY MEDICAL SCIENCES, priority 2020, published 2023).

What was measured:
PD-1/PD-L1 interaction = PD-1/PD-L1 interaction (Homo sapiens (Human), UniProt Q9NZQ7); assay: PD-1/PD-L1 Binding Assay kit (Cisbio), HTRF; conditions: 8-10 concentrations, read-out: IC50 of inhibition of PD-1/PD-L1 interaction
human PD-L1 = human PD-L1 (Homo sapiens (Human), UniProt Q9NZQ7); assay: Biofilm interferometry (BLI, OctetRED) binding to human PD-L1/AVI; conditions: 1:1 binding model
Chain of human PD-L1 (Q9NZQ7 19-290): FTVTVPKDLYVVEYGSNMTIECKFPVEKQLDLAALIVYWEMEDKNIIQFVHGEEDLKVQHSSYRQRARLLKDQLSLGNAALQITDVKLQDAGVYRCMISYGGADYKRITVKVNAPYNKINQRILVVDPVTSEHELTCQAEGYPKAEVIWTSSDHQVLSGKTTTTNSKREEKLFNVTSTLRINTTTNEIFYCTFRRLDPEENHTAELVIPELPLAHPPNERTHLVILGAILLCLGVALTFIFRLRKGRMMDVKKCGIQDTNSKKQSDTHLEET
Description: In the experiment, the instrument OctectRED of Fortebio Company based on biofilm interferometry (BLI) technology was used to capture human PD-L1/AVI with SA chips. The concentration of antigen PD-L1/AVI was diluted to 10 μg/mL with running buffer (PBS+0.02% Tween-20+2% DMSO), and the loading time was 300 s; similarly, the analyte was also diluted to the corresponding concentrations (20 nM, 10 nM, 5 nM, 2.5 nM, 1.25 nM, 0.625 nM, 0.3125 nM) with running buffer in gradient manner, and a buffer blank control group was set at the same time. The binding time of human PD-L1/AVI to the analyte was 180 s, and the dissociation time was 300 s; the chip was regenerated with 10 mM glycine HCl, pH 1.7 solution and repeated 5-second pulse for 3 times. The data were fitted to a 1:1 binding model to determine the equilibrium dissociation constant KD.

[1] = system: Human peripheral blood mononuclear cells (PBMCs); assay: Promotion of IFN-γ secretion in PBMCs treated with anti-CD3/anti-CD28 and PDL1/FC fusion protein (ELISA); assay type: cell-based; conditions: for IFN-γ / Increase rate of IFN-γ expression vs PDL1 treatment: hPD-L1 10.0 μg/mL, 72 h
Description: Human peripheral blood mononuclear cells (PBMCs) were isolated from 10-15 ml of whole blood of healthy volunteers using experimental human lymphocyte separation medium (TBD sciences). The cells were washed twice with normal saline and resuspended in buffer (RPMI 1640 complete medium containing 10% FBS, SIGMA) to count the cell density. The PBMCs were dispersed and placed in a 96-well plate, 1×10^5 cells and 50 μL of buffer per well. Anti-CD3 antibody (SIGMA) and anti-CD28 antibody (SIGMA) were mixed at a ratio of 1:1 to obtain an antibody mixture. The antibody mixture was added to the wells to ensure that the final concentration of antibody was 0.8 μg/mL. At the same time, PDL1/FC fusion protein (SINO BIOLOGICAL) was added to reach a final concentration of 10.0 μg/mL, and the compound to be tested was diluted with buffer and added to the wells to reach a final concentration of 0.1 μM or 1 μM. The mixed system was incubated at 37° C. and 5% CO2 for 72 h. The supernatant was collected, and the expression level of IFN-γ was measured by ELISA MAXTM Human IFN-γ Standard Kit (BioLegend), and the increase rate was calculated. Increase rate (%)=(expression amount of compound treatment−expression amount of PDL1 treatment)/expression amount of PDL1 treatment×100%

Raji cells = assay: Cytotoxicity, Cell Titer-Glo, Raji cells; assay type: cell-based; conditions: Homo sapiens, 24 hours incubation, read-out: Raji cells IC50 (cell death)
Description: (§1) The raji (ATCC), raw (ATCC) and PBMCs cells were suspended in buffer (RPMI 1640 complete medium containing 10% FBS, SIGMA), respectively, and the cell density was counted. The cells were transferred to wells of a 96-well plate, ensuring that the cell density of each well was 1×10^4 cells/well, and incubated for 24 hours at 37° C., 5% CO2 with compounds at different concentrations (100 μM, 50 μM, 25 μM, 12.5 μM, 6.25 μM and 3.125 μM) and buffer control solution (0.2% DMSO). To each well, 100 μL of Cell Titer-Glo Luminescent Solution (Promega) was added and shaken for 10 minutes at room temperature, and then GloMax® Navigator System was used to measure the system […], and the cell death rate was calculated. Cell death rate (%)=(1−RLUcompound/RLUcontrol)×100%, and IC50 was determined from the inhibition curve.

Raw cells = assay: Cytotoxicity, Cell Titer-Glo, Raw cells; assay type: cell-based; conditions: 24 hours incubation; read-out: Raw cells IC50 (cell death)
Description: as §1

PBMCs cells = assay: Cytotoxicity, Cell Titer-Glo, PBMCs cells; assay type: cell-based; conditions: Homo sapiens, PBMC; 24 hours incubation; read-out: PBMCs cells IC50 (cell death)
Description: as §1

[2] = system: colon cancer cell line MC38 (mouse PD-L1 knockout, human PD-L1 knockin); assay: Antitumor efficacy in vivo in PD-1 humanized mice inoculated with PD-L1 humanized MC38 cells; conditions: 15 mg/kg intraperitoneal injection once per day for three weeks, compared with the control group
Excerpt: Based on the mechanism that PD-1/PD-L1 inhibitors activated the immune system to achieve anti-tumor effects by interfering with the interaction of PD-1/PD-L1, the animal models used in vivo efficacy experiments must be animals with healthy immune systems; in addition, the species differences of PD-1/PD-L1 between animals and humans are considered. Therefore, the in vivo antitumor pharmacodynamics evaluation model of the present invention adopted PD-1 humanized mice, and the inoculated tumors were PD-L1 humanized tumor cells. This evaluation model could more accurately reflect the in vivo efficacy of the compound.
24 PD-1 humanized mice (full name of strain: C57BL/6J-Pdcd1^em1(hPDCD1)/Smoc) about 6 weeks old were purchased from Shanghai Southern Model Animal Center, and placed in SPF grade animal breeding room for observation for 1 to 2 weeks. After the animals were adapted to the raising environment, the genetically engineered colon cancer cell line MC38 (mouse PD-L1 knockout, human PD-L1 knockin) was subcutaneously inoculated to the mice near the hind leg groin, and the inoculated cell volume was 1×10^6 cells per mouse. […] During the experiment, the tumor size and mouse body weight were measured and recorded, and the mice were sacrificed at the end of the experiment. […]

Chain of PD-1/PD-L1 interaction (Q9NZQ7 19-238): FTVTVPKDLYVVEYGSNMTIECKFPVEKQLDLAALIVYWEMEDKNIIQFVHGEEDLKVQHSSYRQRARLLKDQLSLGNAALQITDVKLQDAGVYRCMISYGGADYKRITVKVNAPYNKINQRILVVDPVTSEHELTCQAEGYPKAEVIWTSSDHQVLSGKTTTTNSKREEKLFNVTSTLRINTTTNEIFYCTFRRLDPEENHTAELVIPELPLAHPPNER

Cc1cc(CN[C@H](CO)C(=O)O)c(OCc2cncc(C#N)c2)cc1NCc1cccc(-c2ccccc2)c1C [Compound 5]
IC50 (PD-1/PD-L1 interaction): 12 nM | Kd (human PD-L1): 0.0162 nM | kon (human PD-L1): 2.17e+06 M⁻¹ s⁻¹ | koff (human PD-L1; read-out: Kdis): 3.53e-05 s⁻¹ | IFN-γ ([1]; compound 0.1 μM): 38300 pg/mL | Increase rate of IFN-γ expression vs PDL1 treatment ([1]; compound 0.1 μM): 79.8% | IFN-γ ([1]; compound 1.0 μM): 42400 pg/mL | Increase rate of IFN-γ expression vs PDL1 treatment ([1]; compound 1.0 μM): 99.1% | effect on promoting IFN-γ secretion at the cellular level ([1]; in words, better than that of BMS202): significant effect on promoting IFN-γ secretion | IC50 (Raji cells): > 100000 nM | IC50 (Raw cells): > 100000 nM | IC50 (PBMCs cells): > 100000 nM | growth of tumors [2]: significantly inhibit the growth of tumors
